The text below walks through data of article PMC11212260, “Next-generation neuropeptide Y receptor small-molecule agonists inhibit mosquito-biting behavior” (Parasites & Vectors, 2024).

For assay [1], the target named is Ae. aegypti NPYLR7 (Aedes aegypti, UniProt U5N1H5). Nature of the assay: In vitro calcium (GCaMP6s) FLIPR assay in HEK293T cells transfected with NPYLR7. It counts as cell-based. The following applies: for RFU: assay date 1/11/20 plate 1, duplicate wells, listed as FMFR3a. As to the method: The in vitro screening assay was adapted from, and carried out at HD Biosciences (HDB, Shanghai) as follows: HEK293T (Thermo Fisher Scientific) cells were grown in Dulbecco’s modified Eagle medium (DMEM) (high glucose, with glutamine), 10% fetal bovine serum, 1% penicillin–streptomycin (Pen/Strep), seeded in a 75 cm^2 flask, and incubated at 37 °C and 5% CO2. Cells were transiently transfected with 1 μg of each plasmid expressing GCaMP6s (Addgene […]) (Chen et al., 2013), mouse Gqα15 (Addgene #40753) (Offermanns and Simon, 1995) and Ae. aegypti NPYLR7 (Addgene #52392) (Duvall et al. 2019) using Lipofectamine 2000 (Invitrogen) in 4 ml of Opti-MEM (Invitrogen). This mixture was added to a plate after 20 min and incubated for 6–8 h. Cells were then trypsinized, resuspended in phenol-free media, and plated in a 384-well plate (Greiner Bio-One) at a density of 20,000 cells per 40 μl, and incubated overnight (37 °C, 5% CO2). Cells were imaged directly in phenol-free media. Plates were loaded into a Molecular Devices fluorescence imaging plate reader (FLIPR) with an excitation wavelength of 470–495 nm and an emitted wavelength of 515–575 nm. Plates were imaged every second for 5 min. After 30 s of baseline fluorescence recording, 10 μl of the test compound in reading buffer [Hank’s Balanced Salt Solution (Gibco) + 20 mM HEPES (Sigma-Aldrich)] was added. Concentrations tested ranged from 0 to 100 μM. Data were collected in raw fluorescence units (RFU).
Each test plate included replicates of 10 μM FMRFa3 (H‐Ala‐Gly‐Gln‐Gly‐Phe‐Met‐Arg‐Phe‐NH2), an Ae. aegypti neuropeptide agonist of NPYLR7 used to calculate the hundred percent effect (HPE). The zero percent effect (ZPE) control was calculated as a response to buffer alone. The Z′ factor was calculated for each plate by Z^′=1-3σHPE+3σZPE/|μHPE-μZPE| . Plates with Z′ < 0.5 were excluded from analysis. Raw fluorescence units (RFU) were converted to percent effect relative to the average of the ZPE and HPE. Percent effect = (sample luminescence − average ZPE)/(average HPE − average ZPE)×100. […] Each replicate was plotted as percent effect versus log[concentration], and replicates with maximal responses between 20 and 250% were used for EC50 calculations. Relative EC50 was calculated using an [Agonist] versus response–variable slope four-parameter model where Y=Bottom+(X^Hillslope)∗(Top-Bottom)/(X^HillSlope+EC50^HillSlope) . For compounds with multiple replicates, the relative EC50 of each replicate was averaged.

Assay [2] relates to Aedes aegypti (Orlando strain) females. Nature of the assay: Host-seeking screening assay (miniport olfactometer). It counts as in vivo. Conditions: fed 1 μM in saline, tested 48 h post-meal; for Attraction (relative to saline): per-compound value of Fig. 3C. As to the method:
Groups of 60–150 females were placed in bucket cages with a diameter of 21.6 cm and height of 16.5 cm (VWR) and fasted with access to water for 24 h prior to feeding. Meals were delivered to females via Glytube membrane feeders as described previously. Meals consisted of 1.5 ml sheep blood (HemoStat Laboratories), saline (400 mM NaHCO3 + dih2O), or saline and test compound. Lyophilized compounds were stored at room temperature until use. High-concentration stocks (30 mM in 100% dimethyl sulfoxide [DMSO]) (Sigma-Aldrich) were stored at −20 °C and diluted in saline immediately prior to feeding. Once prepared, meals and glycerol heating elements were warmed in a 42 °C water bath for 15 min to provide warmth to attract mosquitos to feed. ATP (1 mM final concentration) and test compounds (1 μM final concentration) were added prior to placing the meal on top of the mesh on the cage containing female mosquitos. Females were allowed 15–20 min to feed to repletion. Abdominal engorgement was scored by eye and confirmed by weighing females to ensure full feeding (Data S1). […] Females were returned to their original cage with a diH2O wick for 48 h prior to behavioral testing. The lethality of each compound was measured by counting the number of dead females in each cage 24 h post-meal.
Miniport olfactometers were fabricated in-house as described previously. Information regarding design, construction, and use can be found at https://github.com/VosshallLab/Miniport-Construction. Miniport canisters consisted of a 6″ × 3″ × 3″ acrylic tube with a mesh screen to allow for air flow. Groups of 10–20 females were loaded into canisters 24 h post-meal. Females were left in canisters overnight to acclimate with two cotton balls soaked in diH20 to prevent desiccation. Behavior trials began 48 h post-meal. Canisters were randomly assigned to attraction traps 1–4 and given 5 min to acclimate. The stimulus end of the trap was connected to a flowmeter that supplied 5% CO2 at a rate of 30 ml/min. Thirty seconds of CO2 flow was supplied to activate females prior to opening the sliding door. Once opened, the sliding door gave females access to the attraction trap baited with a human-scented nylon stocking previously worn by the same experimenter for 8–10 h to collect body odor and stored in a plastic bag at −20 °C until use. After 5 min, the sliding door was closed and attraction was scored as mosquitoes in the attraction trap/total number of mosquitoes. For each experiment data were normalized to the matched average saline attraction from the same experiment (% attracted/average saline attraction). Any dead mosquitoes were excluded from the analysis. Non-fed females and blood-fed females served as environmental control groups while the saline-fed females served as the vehicle control each day. If non-fed or saline-fed females were less than 50% attracted or if blood-fed females were more than 20% attracted behavioral trials were halted and all data from that experimental day were discarded.

The mark [3] stands for this setting: Figure 1E Summary, third list (n = 39), read-out: Reported Metric (Summary list).
Where [4] appears, read: relative EC50, percent effect relative to 10 μM FMRFa3, read-out: EC50.
[5] abbreviates: EC50 of the individual assay date/plate (assay date), read-out: EC50.
[6] abbreviates: Figure 1E Summary, second list (n = 48), read-out: Reported Metric (Summary list).
[7] abbreviates: sheet Figure 3C, unit inferred, read-out: EC50.
[8] abbreviates: summary EC50 per compound (mean over assay dates), the unit is taken from the neighbouring EC50 (uM) column, read-out: Reported Metric.
[9] abbreviates: HEK-293T, 11.1111 uM, single replicate, normalised response.
Where [10] appears, read: HEK-293T, 33.3333 uM, single replicate, normalised response.
Where [11] appears, read: HEK-293T, single replicate, normalised response.

Where “and” joins values, the source holds several entries; their conditions need not be identical. Equal entries are not always repeated. Where two headings read alike, the source gives them in different places. Where a SMILES comes first, the peptide text is derived from it.

Chain of Ae. aegypti NPYLR7 (U5N1H5 entry or part of it): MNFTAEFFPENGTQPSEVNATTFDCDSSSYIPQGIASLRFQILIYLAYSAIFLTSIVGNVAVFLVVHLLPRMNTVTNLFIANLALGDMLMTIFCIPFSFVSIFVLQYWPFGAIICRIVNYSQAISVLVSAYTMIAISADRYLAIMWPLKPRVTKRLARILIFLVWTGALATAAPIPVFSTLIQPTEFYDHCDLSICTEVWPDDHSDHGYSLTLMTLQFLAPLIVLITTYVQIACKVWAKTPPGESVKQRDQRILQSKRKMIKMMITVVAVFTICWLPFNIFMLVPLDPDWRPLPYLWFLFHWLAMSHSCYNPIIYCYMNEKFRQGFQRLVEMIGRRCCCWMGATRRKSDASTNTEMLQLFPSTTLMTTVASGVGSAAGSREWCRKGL

As to `COc1cc2c(C)nc(NC(=N)N)nc2cc1OCc1ccccc1` [TDI-012943], the EC50 is 0.0545 µM in assay [1] (setting [3]); 0.0545 µM in assay [1] (Figure 1E summary value per compound, repeated on each replicate line, read-out: Reported Metric (EC50 summarised over assay dates)); 0.0446 µM and 0.119 µM in assay [1] (fit per assay date/plate (c2), repeated on the replicate lines of one date, read-out: EC50); 0.0545 µM in assay [1] (setting [4]). The “Attraction (relative to saline)” value in assay [2] was 1.035.

Take `Cc1nc(NC(=N)N)nc2cc(OCc3cnccn3)ccc12` [TDI-014181]: the EC50 in assay [1] (setting [5]), in assay [1] (setting [6]), in assay [1] (setting [4]), in assay [1] (setting [7]) and in assay [1] (setting [8]) was 6.21 µM in each case. Besides, in assay [2], the “Attraction (relative to saline)” value turned out to be 0.975.

For `Cc1nc(NC(=N)N)nc2cc(OCc3ccc(OC(F)(F)F)cc3)ccc12` [TDI-014172], the EC50 in assay [1] (setting [5]), in assay [1] (setting [6]), in assay [1] (setting [4]), in assay [1] (setting [7]) and in assay [1] (setting [8]) was 19.7 µM in each case. Further, the activation at 11.1111 µM in assay [1] (setting [9]) is 57%. Moreover, the activation at 33.3333 µM in assay [1] (setting [10]) was determined as 89.6%. The “Host-seeking relative to saline (test compound % host-seeking/average matched saline % host-seeking)” value in assay [2] (individual replicates, listed as TDI-04172) is 1 and 1.1. Besides, in assay [2], the “Attraction (relative to saline)” value came to 0.975.

Consider `CSCC[C@H](NC(=O)[C@H](Cc1ccccc1)NC(=O)CNC(=O)[C@H](CCC(N)=O)NC(=O)CNC(=O)[C@H](C)N)C(=O)N[C@@H](CCCNC(=N)N)C(=O)N[C@@H](Cc1ccccc1)C(N)=O` [FMRFa3, H‐Ala‐Gly‐Gln‐Gly‐Phe‐Met‐Arg‐Phe‐NH2, reference compound] (H-AGQGFMRF-NH2), for which the RFU is 65 RFU and 68 RFU in assay [1] (0.00169350878084303uM); 68 RFU and 63 RFU in assay [1] (0.00508052634252909uM); 60 RFU and 54 RFU in assay [1] (0.0152415790275873uM); 68 RFU and 57 RFU in assay [1] (0.0457247370827618uM); 60 RFU and 61 RFU in assay [1] (0.137174211248285uM); 69 RFU and 63 RFU in assay [1] (0.411522633744856uM). Also, the RFU in assay [1] (1.23456790123457uM) was 164 RFU and 112 RFU; in assay [1] (3.7037037037037uM), 199 RFU and 204 RFU; in assay [1] (11.1111111111111 uM), 247 RFU and 275 RFU; in assay [1] (33.333333 uM), 320 RFU and 317 RFU; in assay [1] (100 uM) it was 354 RFU and 310 RFU.

Consider `Cc1nc(NC(=N)N)nc2cc(OCc3ccc(S(C)(=O)=O)cc3)ccc12` [TDI-014182], for which the EC50 in assay [1] (setting [5]), in assay [1] (setting [3]), in assay [1] (setting [4]), in assay [1] (setting [7]) and in assay [1] (setting [8]) was 0.222 µM throughout. The activation at 0.4115 µM in assay [1] (HEK-293T, 0.4115 uM, single replicate, normalised response) was 32%. The activation at 1.2346 µM in assay [1] (HEK-293T, 1.2346 uM, single replicate, normalised response) was found to be 62.2%. Moreover, the activation at 3.7037 µM in assay [1] (setting [11]) turned out to be 77.6%. In addition, the activation at 11.1111 µM in assay [1] (setting [9]) worked out at 90.2%. For the same compound, the activation at 33.3333 µM in assay [1] (setting [10]) worked out at 80.3%. Besides, the “Attraction (relative to saline)” value in assay [2] worked out at 0.9.

`Cc1nc(NC(=N)N)nc2cc(OC(F)(F)F)ccc12` [TDI-012613]: the EC50 in assay [1] (setting [3]) is 3.38 µM; in assay [1] (Figure 1E, EC50 of the single assay date/plate, read-out: EC50), 5.42 µM and 1.34 µM; in assay [1] (Figure 1E, metric reported per compound, repeated on every replicate line, read-out: Reported Metric (EC50)) it was 3.38 µM; in assay [1] (setting [4]), 3.38 µM. Besides, the activation at 11.1111 µM in assay [1] (HEK-293T, compound 11.1111 uM, single replicate well, read-out: response at 11.1111) turned out to be 43.1%. Also, the activation at 33.3333 µM in assay [1] (HEK-293T, compound 33.3333 uM, single replicate well, read-out: response at 33.3333) worked out at 69.7%.

`CSCC[C@H](NC(=O)[C@H](Cc1ccccc1)NC(=O)CNC(=O)[C@H](CCC(N)=O)NC(=O)CNC(=O)[C@H](C)N)C(=O)N[C@@H](CCCNC(=N)N)C(=O)N[C@@H](Cc1ccccc1)C(N)=O` [FMRF3a] (H-AGQGFMRF-NH2): the “response at 0.0017(uM)” value in assay [1] (0.0017 uM, single replicate, normalised response) stood at 2.545. Besides, the “response at 0.0051(uM)” value in assay [1] (0.0051 uM, single replicate, normalised response) is listed as -0.01361. In addition, the EC50 was 2.4 µM and 3.76 µM and 1.51 µM and 8.78 µM and 4.23 µM and 2.6 µM and 8.21 µM and 1.15 µM and 4.22 µM and 4.26 µM in assay [1] (EC50 (uM), EC50 of the individual assay date/plate (assay date)); 4.11 µM in assay [1] (Reported Metric, summary EC50 per compound (mean over assay dates), the unit is taken from the neighbouring EC50 (uM) column).

Turning to `Cc1nc(NC(=N)N)nc2cc(OCC3CCCCC3)ccc12` [TDI-014169], the EC50 turned out to be 4.43 µM in assay [1] (setting [5]); 4.43 µM in assay [1] (setting [6]); 4.44 µM in assay [1] (setting [4]); 4.43 µM in assay [1] (setting [7]); 4.43 µM in assay [1] (setting [8]). In assay [1] (setting [11]), the activation at 3.7037 µM is 42.2%. The activation at 11.1111 µM in assay [1] (setting [9]) worked out at 78.4%. Besides, in assay [1] (setting [10]), the activation at 33.3333 µM turned out to be 94.5%. Further, the activation at 100 µM in assay [1] (HEK-293T, 100 uM, single replicate of the dose-response curve, normalised response) turned out to be 113%. For the same compound, the “Attraction (relative to saline)” value in assay [2] is given as 1.025.
